Assay results reported in US11771737B2, “Treating or preventing adverse liver conditions” (priority 2017, dated 2023).

Experiments:
CXCL16 = CXCL16 mRNA in primary murine LSECs administered bile acids; format: cell-based, mice; conditions: primary murine LSECs in vitro, 24 hours
Excerpt: FIG. 28E is a dot plot showing CXCL16 mRNA levels of isolated LSECs administered different bile acids, in accordance with embodiments of the invention. n=5, p<0.05, one-way ANOVA.
FIG. 28F is a dot plot showing CXCL16 mRNA levels of isolated LSECs administered a combination of T-b-MCA with T-w-MCA or ω-MCA. n=5, p<0.05, one-way ANOVA.
Primary mice liver sinusoidal endothelia cells were isolated as previously described (Limmer et al., Nat. Med., 6: 1348-1354 (2000), incorporated by reference herein). Briefly, mice were CO2 euthanized, and then the portal vein was cannulated, and the liver was perfused with 0.05% collagenase in Ca^2+ deprived medium. Liver cells were dissociated, and parenchymal cells were killed by incubation in 0.04% collagenase in Gey's balanced salt solution at 37° C. for 15 minutes. Then density gradient centrifugation was performed using Nycodenz solution at the final solution of 1.089 g/cm^3. Liver sinusoidal endothelial cells (LSEC) were isolated using anti-LSEC microbeads (Miltenyi, Bergisch Gladbach, Germany) according to the manufacturer's instructions. LSECs or the human SK-HEP1 cell line (ATCC, HTB-52) were administered different bile acids for 24 hours. Gene expression was analyzed by real-time PCR. […]

EL4 tumor cells = assay: Tail vein EL4 tumor cell injection, liver tumors in wild-type, CXCR6 and CD1d knockout mice; format: in vivo; conditions: ABX-administered CXCR6−/− mice
Excerpt: Measurements were taken 3 weeks after injection. Cumulative data are shown. n=10 for Wt-H2O, 7 for Wt-ABX, 4 for CXCR6^−/−-H2O, 5 for CXCR6^−/−-ABX, 5 for CD1d^−/−-H2O, 4 for CD1d^−/−-ABX. p<0.05, two-way ANOVA.
(§1) B16-F1 and A20 cells were purchased from ATCC (Manassas, Va., USA). EL4 cells were used as described (Ma et al., J. Leukoc. Biol., 92: 1199-1206 (2012), incorporated by reference herein). 1×10^6 EL4 tumor cells were given by subcutaneous (s.c.) or tail vein injection, 3×10^5 B16-F1 tumor cells were given by intrasplenic injection as described before (Eggert et al., Cancer Cell, 30: 533-547 (2016), incorporated by reference herein), and 1×10^6 A20 tumor cells were given by tail vein injection.
NKT cells are known to have anti-tumor function and can directly kill CD1d expressing tumors. All three tested tumor models (B16, EL4 and A20) expressed […] at different levels (FIG. 22). To investigate the role of NKT cells in this setting, CD1d knockout and CXCR6 knockout mice were used. CD1d knockout mice completely lack NKT cells, while CXCR6 knockout mice have a selective NKT deficiency in the liver. Loss of hepatic NKT cells in these mice was confirmed (FIG. 23). […]
EL4 tumor cells were injected into ABX-pre-administered CXCR6^−/− mice. ω-MCA was given as described above. Liver surface tumors were counted three weeks after tumor injection.

A20 tumor cells = assay: Tail vein A20 tumor cell injection, liver metastasis; format: in vivo, BALB/c mice; conditions: A20 tumor-bearing antibiotic (vancomycin)-administered mice, ω-MCA feeding
Excerpt: Liver metastases were counted three weeks after injection. Cumulative data are shown. n=8, p<0.05, Student's t-test.
FIG. 7B is a dot plot showing liver weight of liver sections in mice that received tail vein injection of A20 tumor cells. n=4, p<0.05, Student's t-test.
as §1
Mice were kept on ABX cocktail and fresh ABX was replaced every other day. Mice were fed with bile acids by oral gavage 48, 24 and 16 hrs prior to sacrifice. For A20 tumor bearing mice, ω-MCA were given 3 times/week. ω-MCA and CDCA were dissolved in corn oil and given at the dose of 6 mg/15 g body weight.
A20 tumor cells were i.v. injected into vancomycin-(Vanco) or H2O-administered BALB/c mice. ω-MCA (5 mg/mouse) was given by oral gavage three times/week. aCD4 antibody (GK1.5) was given i.p. at the dose of 500 μg/mouse weekly to deplete […] cells. FIGS. 30A and 30B show the results after 3 weeks.

hepatic NKT cells = assay: In vivo bile acids feeding, hepatic NKT cell levels; conditions: ABX-administered mice, oral gavage 6 mg/15 g body weight at 48, 24 and 16 hrs

SMILES: C[C@H](CCC(=O)O)[C@H]1CC[C@H]2[C@@H]3[C@@H](O)[C@H](O)[C@@H]4C[C@H](O)CC[C@]4(C)[C@H]3CC[C@]12C [ω-MCA, ω-muricholic acid]
- cxcl16 mRNA expression (CXCL16): decreased
- liver tumor development (EL4 tumor cells): failed to affect
- liver tumor growth (A20 tumor cells): reversed the inhibition of liver tumor growth
- hepatic NKT accumulation (hepatic NKT cells): effectively reversed hepatic NKT accumulation
